Assay results reported in patent US20250195513A1, “DEGRADATION OF IRAK4 BY CONJUGATION OF IRAK4 INHIBITORS WITH E3 LIGASE LIGAND AND METHODS OF USE” (BeiGene, Ltd., priority 2022, published 2025).
Like-named read-outs stand apart in the source and are kept apart here.

Molecular target: T1, IRAK4 (Homo sapiens, UniProt Q9NWZ3)
T1 construct: endogenous in cells; host or cells: Karpas299
T1 sequence (Q9NWZ3 1-460): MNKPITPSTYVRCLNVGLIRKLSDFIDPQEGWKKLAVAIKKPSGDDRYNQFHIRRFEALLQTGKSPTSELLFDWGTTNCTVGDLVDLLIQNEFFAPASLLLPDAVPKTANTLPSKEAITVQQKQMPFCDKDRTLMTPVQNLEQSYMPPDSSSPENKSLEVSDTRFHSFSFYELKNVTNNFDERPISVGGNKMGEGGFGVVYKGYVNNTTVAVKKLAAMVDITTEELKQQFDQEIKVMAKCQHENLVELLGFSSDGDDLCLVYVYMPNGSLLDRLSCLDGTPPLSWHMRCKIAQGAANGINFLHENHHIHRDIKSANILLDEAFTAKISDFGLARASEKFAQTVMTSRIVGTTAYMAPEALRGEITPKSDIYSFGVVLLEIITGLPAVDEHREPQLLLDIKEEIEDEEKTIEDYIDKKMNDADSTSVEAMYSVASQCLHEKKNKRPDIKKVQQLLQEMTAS
Experiment: IRAK4 Degradation Assay (Karpas299, HTRF/TR-FRET)
Assay type: cell-based
Settings: Karpas-299 cells; for Dmax: maximum percentage of degradation
In short: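 Compound potency as DC50 (IC50) came from four-parameter fits of percent IRAK4 degradation. IRAK4 was measured by HTRF (665/620 nm) in lysates of Karpas299 cells seeded at 0.2 million per well. Cells had been treated with compound dilutions for 5 or 24 h.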

[1] = 24 h treatment, read-out: IRAK4 in Karpas-299 (24 h) Dmax (%)
[2] = 24 h treatment, read-out: IRAK4 in Karpas-299 (24 h) DC50
[3] = 5 h treatment, read-out: IRAK4 in Karpas-299 (5 h) Dmax (%)
[4] = 5 h treatment, read-out: IRAK4 in Karpas-299 (5 h) DC50

Dmax [1] [%]	DC50 [2] [nM]	Dmax [3] [%]	DC50 [4] [nM]	Compound
94	1.6	–	–	CC(C)(O)c1cc2nn([C@H]3CC[C@H](N4CCN(C(=O)[C@@H]5CCN(c6cc(F)c([C@H]7CCC(=O)NC7=O)c(F)c6)C5)CC4)CC3)cc2cc1NC(=O)c1ccc2c(n1)C(F)(F)CCC2 [Example 172, N-(2-((1R,4r)-4-(4-((R)-1-(4-((R)-2,6-dioxopiperidin-3-yl)-3,5-difluorophenyl)pyrrolidine-3-carbonyl)piperazin-1-yl)cyclohexyl)-6-(2-hydroxypropan-2-yl)-2H-indazol-5-yl)-8,8-difluoro-5,6,7,8-tetrahydroquinoline-2-carboxamide]
97	7.7	–	–	[2H]C([2H])([2H])Oc1cc2nn([C@H]3CC[C@H](N4CCN(C(=O)[C@@H]5CCN(c6cc(F)c(N7CCC(=O)NC7=O)c(F)c6)C5)CC4)CC3)cc2cc1NC(=O)c1cccc(C(F)(F)F)n1 [Example 174, N-(2-((1R,4r)-4-(4-((R)-1-(4-(2,4-dioxotetrahydropyrimidin-1(2H)-yl)-3,5-difluorophenyl)pyrrolidine-3-carbonyl)piperazin-1-yl)cyclohexyl)-6-(methoxy-d3)-2H-indazol-5-yl)-6-(trifluoromethyl)picolinamide]
100	1.7	88	12	O=C1CCC(c2ccc(N3CC(C(=O)N4CCN([C@H]5CC[C@H](n6cc(NC(=O)c7coc(-c8ccnc(NCC(F)(F)F)c8)n7)c(C(F)F)n6)CC5)CC4)C3)cc2)C(=O)N1 (stereo partly shown) [Example 175, N-(3-(difluoromethyl)-1-((1r,4r)-4-(4-(1-(4-(2,6-dioxopiperidin-3-yl)phenyl)azetidine-3-carbonyl)piperazin-1-yl)cyclohexyl)-1H-pyrazol-4-yl)-2-(2-((2,2,2-trifluoroethyl)amino)pyridin-4-yl)oxazole-4-carboxamide]
97	7.8	94	44	COc1cc2nn([C@H]3CC[C@H](N4CCN(C(=O)[C@@H]5CCN(c6cc(F)c(N7CCC(=O)NC7=O)c(F)c6)C5)CC4)CC3)cc2cc1NC(=O)c1cccc(C(F)(F)F)n1 [Example 177, N-(2-((1R,4r)-4-(4-((R)-1-(4-(2,4-dioxotetrahydropyrimidin-1(2H)-yl)-3,5-difluorophenyl)pyrrolidine-3-carbonyl)piperazin-1-yl)cyclohexyl)-6-methoxy-2H-indazol-5-yl)-6-(trifluoromethyl)picolinamide]
96	4.8	–	–	CC(C)(O)c1cc2nn(C3CCN([C@H]4CCN(CC5CN(c6cc(F)c([C@H]7CCC(=O)NC7=O)c(F)c6)C5)CC4(F)F)CC3)cc2cc1NC(=O)c1ccc2cc(C#N)cnn12 [Example 197, 3-cyano-N-(2-((S)-1′-((1-(4-((R)-2,6-dioxopiperidin-3-yl)-3,5-difluorophenyl)azetidin-3-yl)methyl)-3′,3′-difluoro-[1,4′-bipiperidin]-4-yl)-6-(2-hydroxypropan-2-yl)-2H-indazol-5-yl)pyrrolo[1,2-b]pyridazine-7-carboxamide]
93	9	–	–	CC(C)(O)c1cc2nn(C3CCN([C@@H]4CCN(C(=O)C5CN(c6cc(F)c(N7CCC(=O)NC7=O)c(F)c6)C5)CC4(F)F)CC3)cc2cc1NC(=O)c1ccc2cc(C#N)cnn12 [Example 198, (R)-3-cyano-N-(2-(1′-(1-(4-(2,4-dioxotetrahydropyrimidin-1(2H)-yl)-3,5-difluorophenyl)azetidine-3-carbonyl)-3′,3′-difluoro-[1,4′-bipiperidin]-4-yl)-6-(2-hydroxypropan-2-yl)-2H-indazol-5-yl)pyrrolo[1,2-b]pyridazine-7-carboxamide]
97	1	–	–	CC(C)(O)c1cc2nn([C@H]3CC[C@H](N4CCN(C(=O)N5CCN(c6cc(F)c([C@H]7CCC(=O)NC7=O)c(F)c6)CC5)CC4)CC3)cc2cc1NC(=O)c1ccc2cc(C#N)cnn12 [Example 225, 3-cyano-N-(2-((1r,4r)-4-(4-(4-(4-((R)-2,6-dioxopiperidin-3-yl)-3,5-difluorophenyl)piperazine-1-carbonyl)piperazin-1-yl)cyclohexyl)-6-(2-hydroxypropan-2-yl)-2H-indazol-5-yl)pyrrolo[1,2-b]pyridazine-7-carboxamide]
94	1.9	–	–	CC(C)(O)c1cc2nn(C3CCN([C@H]4CCN(C(=O)C5CN(c6cc(F)c([C@H]7CCC(=O)NC7=O)c(F)c6)C5)CC4(F)F)CC3)cc2cc1NC(=O)c1ccc2cc(C#N)cnn12 [Example 287, 3-cyano-N-(2-((S)-1′-(1-(4-((R)-2,6-dioxopiperidin-3-yl)-3,5-difluorophenyl)azetidine-3-carbonyl)-3′,3′-difluoro-[1,4′-bipiperidin]-4-yl)-6-(2-hydroxypropan-2-yl)-2H-indazol-5-yl)pyrrolo[1,2-b]pyridazine-7-carboxamide]
96	2.3	–	–	CC(C)(O)c1cc2nn(C3CCN([C@@H]4CCN(C(=O)C5CN(c6cc(F)c([C@H]7CCC(=O)NC7=O)c(F)c6)C5)CC4(F)F)CC3)cc2cc1NC(=O)c1ccc2cc(C#N)cnn12 [Example 288, 3-cyano-N-(2-((R)-1′-(1-(4-((R)-2,6-dioxopiperidin-3-yl)-3,5-difluorophenyl)azetidine-3-carbonyl)-3′,3′-difluoro-[1,4′-bipiperidin]-4-yl)-6-(2-hydroxypropan-2-yl)-2H-indazol-5-yl)pyrrolo[1,2-b]pyridazine-7-carboxamide]
87	16	–	–	CC(C)(O)c1cc2nn([C@H]3CC[C@H](N4CCN([C@H]5CCN(c6ccc(N7CCC(=O)NC7=O)cc6)C5)CC4)CC3)cc2cc1NC(=O)c1ccc2cc(C#N)cnn12 [Example 295, 3-cyano-N-(2-((1S,4r)-4-(4-((S)-1-(4-(2,4-dioxotetrahydropyrimidin-1(2H)-yl)phenyl)pyrrolidin-3-yl)piperazin-1-yl)cyclohexyl)-6-(2-hydroxypropan-2-yl)-2H-indazol-5-yl)pyrrolo[1,2-b]pyridazine-7-carboxamide]
92	3.7	–	–	CC(C)(O)c1cc2nn([C@H]3C[C@H](N4CCN(C5CN(c6cc(F)c([C@H]7CCC(=O)NC7=O)c(F)c6)C5)CC4)C3)cc2cc1NC(=O)c1ccc2cc(C#N)cnn12 [Example 331, 3-cyano-N-(2-((1R,3r)-3-(4-(1-(4-((R)-2,6-dioxopiperidin-3-yl)-3,5-difluorophenyl)azetidin-3-yl)piperazin-1-yl)cyclobutyl)-6-(2-hydroxypropan-2-yl)-2H-indazol-5-yl)pyrrolo[1,2-b]pyridazine-7-carboxamide]
97	2.2	–	–	N#Cc1cnn2c(C(=O)Nc3cc4cn([C@H]5CC[C@H](N6CCN(C(=O)C7CN(c8cc(F)c([C@H]9CCC(=O)NC9=O)c(F)c8)C7)CC6)CC5)nc4c4c3OC(F)(F)O4)ccc2c1 [Example 384, 3-cyano-N-(2-((1r,4r)-4-(4-(1-(4-((R)-2,6-dioxopiperidin-3-yl)-3,5-difluorophenyl)azetidine-3-carbonyl)piperazin-1-yl)cyclohexyl)-7,7-difluoro-2H-[1,3]dioxolo[4,5-g]indazol-5-yl)pyrrolo[1,2-b]pyridazine-7-carboxamide]
91	4.8	–	–	N#Cc1cnn2c(C(=O)Nc3cc4cn([C@H]5CC[C@H](N6CCN(C7CN(c8cc(F)c([C@H]9CCC(=O)NC9=O)c(F)c8)C7)CC6)CC5)nc4c4c3OC(F)(F)O4)ccc2c1 [Example 385, 3-cyano-N-(2-((1R,4r)-4-(4-(1-(4-((R)-2,6-dioxopiperidin-3-yl)-3,5-difluorophenyl)azetidin-3-yl)piperazin-1-yl)cyclohexyl)-7,7-difluoro-2H-[1,3]dioxolo[4,5-g]indazol-5-yl)pyrrolo[1,2-b]pyridazine-7-carboxamide]
94	3.2	–	–	N#Cc1cnn2c(C(=O)Nc3cc4cn([C@H]5CC[C@H](N6CCN(CCc7cc(F)c([C@H]8CCC(=O)NC8=O)c(F)c7)CC6)CC5)nc4c4c3OC(F)(F)O4)ccc2c1 [Example 386, 3-cyano-N-(2-((1R,4r)-4-(4-(4-((R)-2,6-dioxopiperidin-3-yl)-3,5-difluorophenethyl)piperazin-1-yl)cyclohexyl)-7,7-difluoro-2H-[1,3]dioxolo[4,5-g]indazol-5-yl)pyrrolo[1,2-b]pyridazine-7-carboxamide]
96	0.9	–	–	CC(C)(O)c1cc2nn([C@H]3CC[C@H](N4CCN(C5CCN(c6cc(F)c([C@H]7CCC(=O)NC7=O)c(F)c6)CC5)CC4)CC3)cc2cc1NC(=O)c1coc2cccnc12 [Example 405, N-(2-((1r,4r)-4-(4-(1-(4-((R)-2,6-dioxopiperidin-3-yl)-3,5-difluorophenyl)piperidin-4-yl)piperazin-1-yl)cyclohexyl)-6-(2-hydroxypropan-2-yl)-2H-indazol-5-yl)furo[3,2-b]pyridine-3-carboxamide]
